# According to US20070212745A1, “BETA-GLUCOSIDASE AND A PROCESS FOR EXTRACTION THEREOF” (priority 2006, published 2007):
# System: β glucosidase
# Assay: Effect of FeSO4 on β glucosidase
# Type: biochemical, Rauvolfia serpentina
# Settings: for Fold activity enhanced: relative to 0 mM
# Method: Rauvolfia serpentina (Sarpgandha) plants were raised from root cuttings at the glass house of Central Institute of Medicinal and Aromatic Plants (CIMAP), Lucknow by following standard agronomic practices. The extraction of the glucosidase enzyme was optimized with respect to buffer, pH, protecting and stabilizing agents to obtain maximum extractable activity. All the operations of enzyme isolation were carried out at 0-4° C. unless specified otherwise. The extraction medium of present invention also relates to a process for the extraction of a B glucosidase from plant tissues from a natural source and useful for the cleaving of β-1,4 linkage of PNPG, said process comprising: homogenizing the plant tissue in a cold extraction medium (1 g tissue/3 ml). Flowers of Rauvolfia serpentina were homogenized in 100 mM K-phosphate buffer (pH 6.0) including 10 mM β-Mercapto ethanol and 2 mM E.D.T.A. (Ethylene Diamine Tetra Acetic Acid). The tissue homogenate was centrifuged at 12,000×g for 30 min at 4° C. and the clear supernatant was collected. Assays specific for the determination of optimum pH, optimum temperature, stability and activation were performed.
# Enzyme activity was assayed using the modified method described by Stevens et al, assay mixture in a total volume of 200 μL contained 2.5 mM p-nitrophenyl β-D-glucopyranoside in 100 mM Citrate-Phosphate buffer (pH 5) at defined temperatures with 10 μL of enzyme preparation. After 15 min of incubation time the reaction was stopped by adding 800 μL of 1M Sodium carbonate and the absorbance of p-nitrophenol (the product of reaction) was measured at wavelength 405 nm.
# Calculation of Units: The enzyme activity was expressed in terms of μmole of p-nitrophenol formed per minute using the molar extinction coefficient (E) 18,350 m^−1 cm^−1 [Estibalitz, O., Richard, O. A., and Ioannis, Z., 2001. The role of β-glucosidase in biosynthesis of 2,5-dimethyl-4-hydroxy-3 (2H)-furanone in strawberry. Flavour and Fragrance J., 16: 81-84.]
smiles,measurement,setting,value
O=S(=O)([O-])[O-].[Fe+2] [FeSO4],β glucosidase Activity (I.U.),FeSO4 Conc. 1 mM,71.93 I.U.
same,Fold activity enhanced,FeSO4 Conc. 1 mM,1.74 Fold
same,β glucosidase Activity (I.U.),FeSO4 Conc. 5 mM,335.69 I.U.
same,Fold activity enhanced,FeSO4 Conc. 5 mM,8.11 Fold
same,β glucosidase Activity (I.U.),FeSO4 Conc. 10 mM,627.79 I.U.
same,Fold activity enhanced,FeSO4 Conc. 10 mM,15.16 Fold
same,effect of FeSO4 on enzyme activity,in words,activation
